Experimental data as given in BindingDB's records for doi:10.1074/jbc.M113.529529 (The University of Tokyo, 2014).

Legend:
Assay in all cases: β-Gal Inhibitory Assay
Conditions in all cases: pH 4.5; 37 °C
[1] = target: T1, Beta-galactosidase [24-677,I51T] (Human, UniProt P16278, I51T)
T1 construct: 24-677
Description: (§1) β-Gal activity was measured by using 4-methylumbelliferyll-β-D-galactopyranoside in buffer B (0.15 M sodium citrate, pH 4.5, and 0.2 M NaCl) as a substrate, and incubating at 37 °C for 6 min.

[2] = target: T2, Beta-galactosidase [24-677,R201C] (Human, UniProt P16278, R201C)
T2 construct: 24-677
Description: as §1

[3] = target: T3, Beta-galactosidase [24-677] (Human, UniProt P16278)
T3 construct: 24-677
T3 sequence (P16278 whole entry): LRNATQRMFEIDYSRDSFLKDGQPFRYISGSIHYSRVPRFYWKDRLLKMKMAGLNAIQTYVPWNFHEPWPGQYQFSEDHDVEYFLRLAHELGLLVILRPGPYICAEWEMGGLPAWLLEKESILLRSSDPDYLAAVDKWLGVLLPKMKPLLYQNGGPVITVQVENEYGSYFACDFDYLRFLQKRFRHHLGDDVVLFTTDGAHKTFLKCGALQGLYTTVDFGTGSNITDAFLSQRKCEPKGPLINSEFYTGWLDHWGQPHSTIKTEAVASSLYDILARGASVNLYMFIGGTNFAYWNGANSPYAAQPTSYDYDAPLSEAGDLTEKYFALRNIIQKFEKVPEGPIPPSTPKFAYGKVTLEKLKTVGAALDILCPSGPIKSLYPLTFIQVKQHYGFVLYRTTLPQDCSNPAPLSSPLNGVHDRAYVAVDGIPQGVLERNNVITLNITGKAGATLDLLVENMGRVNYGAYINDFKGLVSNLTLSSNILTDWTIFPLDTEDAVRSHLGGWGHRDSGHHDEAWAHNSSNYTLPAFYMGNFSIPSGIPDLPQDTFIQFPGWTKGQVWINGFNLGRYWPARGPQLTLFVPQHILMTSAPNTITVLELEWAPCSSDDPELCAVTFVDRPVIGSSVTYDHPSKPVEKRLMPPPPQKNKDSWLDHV
Description: as §1

**Q.** `CCCCNC(=S)N1CC(O)[C@@H](O)[C@@H](O)C1CO` (stereo not given in full) [N-(N'-butylthiocarbamoyl)-1-deoxygalactonojirimycin] was tested. Which Ki [1] did it give?
**A.** The Ki was 329 µM.

**Q.** And the Ki [2]?
**A.** Its Ki is 388 µM.

**Q.** And the Ki [3]?
**A.** The Ki was 373 µM.

**Q.** Which results are given for `OC[C@H]1OC(O)[C@H](O)[C@@H](O)[C@H]1O` (stereo not given in full) [Galactose]?
**A.** Ki [1]: 4910 µM; Ki [2]: 5610 µM; Ki [3]: 4140 µM

**Q.** For `CCCC/N=C1\SC[C@@H]2[C@H](O)[C@H](O)[C@@H](O)CN12` [5N,6S-(N'-butyliminomethylidene)-6-thio-1-deoxygalactonojirimycin], which Ki [1] is on record?
**A.** Its Ki is 68.8 µM.

**Q.** And the Ki [2]?
**A.** The Ki was 53.3 µM.

**Q.** And the Ki [3]?
**A.** Its Ki is 68.3 µM.

**Q.** Which results are given for `CCCC/N=C1/SCC2[C@H](O)[C@H](O)C(O)[C@@H](O)N12` (stereo partly drawn) [5N,6S-(N'-butyliminomethylidene)-6-thiogalactonojirimycin]?
**A.** Ki [1]: 320 µM; Ki [2]: 320 µM; Ki [3]: 253 µM

**Q.** `CCCCCCCCN[C@H]1C=C(CO)[C@@H](O)[C@H](O)[C@H]1O` [NOEV] was tested. Which Ki [1] did it give?
**A.** The Ki was 1.2 µM.

**Q.** And the Ki [2]?
**A.** Its Ki is 0.94 µM.

**Q.** What about the Ki [3] of the same molecule?
**A.** Its Ki is 1.1 µM.
